Measured values reported in the supplement of paper PMC11061612.

Key:
Assay in all cases: combination Emax (second highest fraction inhibited in the dose matrix, 72 h); higher = more inhibition; extreme values may be limits of the assay
[1] = tested on: DB (B-Cell Non-Hodgkin's Lymphoma)
How it was run: (§1)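 Cell lines grown in DMEM/F12 or RPMI with 10% FBS were plated in 1536-well plates and held 24 hours at 37°C, 5% CO2 before 72 hours of exposure to two-drug dose matrices, with DMSO typically at 0.2%. CellTiter-Glo 2.0 luminescence gave viability, which was converted to inhibition. Vehicle wells were set to 0 and blank wells to 1. Combination Emax is the second-highest inhibition in the matrix, and Bliss excess is the observed combination effect minus the expected EA + EB − EA·EB, where EA and EB are the single-agent effects.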

[2] = tested on: DOV13 (Ovarian Carcinoma)
How it was run: as §1

DSH1 (Bladder Carcinoma) = tested on: DSH1 (Bladder Carcinoma)
How it was run: as §1

ES7 (Ewing's Sarcoma) = tested on: ES7 (Ewing's Sarcoma)
How it was run: as §1

[3] = tested on: HT-29 (Colorectal Carcinoma)
How it was run: as §1

[4] = tested on: IHH-4 (Thyroid Gland Carcinoma)
How it was run: as §1

[5] = tested on: KARPAS-620 (Plasma Cell Myeloma)
How it was run: as §1

[6] = tested on: KATOIII (Gastric Carcinoma)
How it was run: as §1

[7] = tested on: LS-513 (Colorectal Carcinoma)
How it was run: as §1

[8] = tested on: MDA-MB-157 (Breast Carcinoma)
How it was run: as §1

[9] = tested on: MDA-MB-231 (Breast Carcinoma)
How it was run: as §1

[10] = tested on: MFH-ino (Other Solid Carcinomas)
How it was run: as §1

[11] = tested on: NALM-6 (B-Lymphoblastic Leukemia)
How it was run: as §1

NCI-H2595 (Mesothelioma) = tested on: NCI-H2595 (Mesothelioma)
How it was run: as §1

[12] = tested on: OCI-AML2 (Acute Myeloid Leukemia)
How it was run: as §1

SK-N-FI (Neuroblastoma) = tested on: SK-N-FI (Neuroblastoma)
How it was run: as §1

SN12C (Kidney Carcinoma) = tested on: SN12C (Kidney Carcinoma)
How it was run: as §1

[13] = tested on: SW1088 (Low Grade Glioma)
How it was run: as §1

[14] = tested on: SW1990 (Pancreatic Carcinoma)
How it was run: as §1

[15] = tested on: TE-5 (Esophageal Squamous Cell Carcinoma)
How it was run: as §1

Row | Structure (SMILES) | combination Emax [1] | combination Emax [2] | combination Emax (DSH1 (Bladder Carcinoma)) | combination Emax (ES7 (Ewing's Sarcoma)) | combination Emax [3] | combination Emax [4] | combination Emax [5] | combination Emax [6] | combination Emax [7] | combination Emax [8] | combination Emax [9] | combination Emax [10] | combination Emax [11] | combination Emax (NCI-H2595 (Mesothelioma)) | combination Emax [12] | combination Emax (SK-N-FI (Neuroblastoma)) | combination Emax (SN12C (Kidney Carcinoma)) | combination Emax [13] | combination Emax [14] | combination Emax [15]
1 | C[C@@H](Oc1cc(-c2cnn(C3CCNCC3)c2)cnc1N)c1c(Cl)ccc(F)c1Cl [Crizotinib] + CC1=C(C(=CC=C1)Cl)NC(=O)C2=CN=C(S2)NC3=CC(=NC(=N3)C)N4CCN(CC4)CCO [Dasatinib] (first compound max 10 µM, 7x7, partner max 2 µM) | 0.711 | 1 | 0.437 | 0.883 | 0.881 | 0.875 | 0.835 | 0.731 | 0.978 | 0.303 | 0.94 | 0.821 | 0.942 | 0.628 | 0.826 | 0.422 | 0.231 | 0.829 | 0.255 | 0.56
2 | C[C@@H](Nc1cc(F)cc(F)c1)c1cc(C(=O)N(C)C)cc2c(=O)cc(N3CCOCC3)oc12 [AZD8186] + C1CN(CCC1(C(=O)N[C@@H](CCO)C2=CC=C(C=C2)Cl)N)C3=NC=NC4=C3C=CN4 [AZD5363] (first compound max 10 µM, 7x7, partner max 10 µM) | 0.0629 | 0.28 | 0.327 | 0.509 | 0.449 | 0.227 | 0.767 | 0.0505 | 0.534 | 0.264 | 0.281 | 0.348 | 0.674 | 0.24 | 0.473 | 0.335 | 0.149 | 0.742 | 0.188 | 0.35
3 | N#Cc1cnc(Nc2cc(NC[C@H]3CNCCO3)c(C(F)(F)F)cn2)cn1 [SRA737] + O=c1[nH]cc(F)c(=O)[nH]1 [5-Fluorouracil] (first compound max 10 µM, 7x7, partner max 20 µM) | 0.236 | 0.347 | 0.414 | 0.82 | 0.696 | 0.934 | 0.414 | 0.565 | 0.644 | 0.926 | 0.271 | 0.314 | 0.896 | 0.132 | 1 | 0.601 | 0.0841 | 0.691 | 0.515 | 0.24
4 | Cc1nc(-c2cn3c(n2)-c2ccc(-c4cnn(C(C)(C)C(N)=O)c4)cc2OCC3)n(C(C)C)n1 [Taselisib] + O=C(Nc1ccc2[nH]nc(-c3ccncc3)c2c1)[C@@H]1CCN(CC(=O)N2CCN(c3ccc(-c4ncccn4)cc3)CC2)C1 [SCH772984] (first compound max 10 µM, 7x7, partner max 5 µM) | 0.449 | 0.599 | 0.977 | 0.726 | 0.965 | 0.73 | 0.969 | 0.583 | 0.975 | 0.418 | 0.834 | 0.659 | 0.752 | 0.393 | 1 | 0.877 | 0.387 | 0.72 | 0.655 | 0.822
5 | C[C@@H]1COCCN1c1cc(C2([S@](C)(=N)=O)CC2)nc(-c2ccnc3[nH]ccc23)n1 [AZD6738] + Nc1ccn([C@@H]2O[C@H](CO)[C@@H](O)C2(F)F)c(=O)n1 [Gemcitabine] (first compound max 10 µM, 7x7, partner max 0.3 µM) | 0.913 | 0.965 | 1 | 0.991 | 0.873 | 1 | 0.763 | 0.656 | 0.824 | 0.925 | 0.858 | 0.716 | 0.974 | 0.374 | 1 | 0.789 | 0.779 | 0.731 | 0.463 | 0.666
6 | Cc1c2c(nn1C)CSCc1cc(n(C)n1)CSc1cc(c3ccccc3c1)OCCCc1c(C(=O)O)n(C)c3c-2c(Cl)ccc13 [AZD5991] + CS(=O)(=O)CCNCc1ccc(-c2ccc3ncnc(Nc4ccc(OCc5cccc(F)c5)c(Cl)c4)c3c2)o1 [Lapatinib] (first compound max 1 µM, 7x7, partner max 10 µM) | 1 | 0.185 | 0.991 | 0.737 | 0.783 | 0.278 | 1 | 0.415 | 0.822 | 0.883 | 0.263 | 0.234 | 0.761 | 0.361 | 0.978 | 0.562 | 0.249 | 0.36 | 0.295 | 0.308
7 | Cc1c2c(nn1C)CSCc1cc(n(C)n1)CSc1cc(c3ccccc3c1)OCCCc1c(C(=O)O)n(C)c3c-2c(Cl)ccc13 [AZD5991] + Nc1ccn([C@@H]2O[C@H](CO)[C@@H](O)C2(F)F)c(=O)n1 [Gemcitabine] (first compound max 1 µM, 7x7, partner max 0.3 µM) | 1 | 0.889 | 1 | 0.982 | 0.6 | 1 | 1 | 0.49 | 0.814 | 0.878 | 0.587 | 0.725 | 0.928 | 0.464 | 1 | 0.457 | 0.422 | 0.197 | 0.353 | 0.75
8 | C=CCn1c(=O)c2cnc(Nc3ccc(N4CCN(C)CC4)cc3)nc2n1-c1cccc(C(C)(C)O)n1 [AZD1775] + CCc1c2c(nc3ccc(O)cc13)-c1cc3c(c(=O)n1C2)COC(=O)[C@]3(O)CC [SN-38] (first compound max 1 µM, partner max 0.3 µM) | 0.985 | 1 | 0.999 | 0.997 | 0.929 | 0.975 | 0.546 | 0.431 | 0.771 | 0.967 | 0.916 | 0.737 | 1 | 0.318 | 1 | 0.586 | 0.587 | 0.712 | 0.542 | 0.875
9 | CN(CCO)CC[C@H](CSc1ccccc1)Nc1ccc(S(=O)(=O)NC(=O)c2ccc(N3CCC([C@@H](O)c4ccccc4-c4ccc(Cl)cc4)CC3)cc2)cc1S(=O)(=O)C(F)(F)F [AZD4320] + CC(=O)O[C@H]1C(=O)[C@@]2(C)[C@H]([C@H](OC(=O)c3ccccc3)[C@]3(O)C[C@H](OC(=O)[C@H](O)[C@@H](NC(=O)c4ccccc4)c4ccccc4)C(C)=C1C3(C)C)[C@]1(OC(C)=O)CO[C@@H]1C[C@@H]2O [Paclitaxel] (first compound max 1 µM, 7x7, partner max 3 µM) | 1 | 1 | 1 | 1 | 0.885 | 0.999 | 1 | 0.803 | 0.963 | 0.86 | 0.984 | 0.777 | 1 | 0.726 | 1 | 0.739 | 0.823 | 0.837 | 0.957 | 0.968
10 | CS(=O)(=O)CCNCc1ccc(-c2ccc3ncnc(Nc4ccc(OCc5cccc(F)c5)c(Cl)c4)c3c2)o1 [Lapatinib] + Cn1cnc2c(F)c(Nc3ccc(Br)cc3Cl)c(C(=O)NOCCO)cc21 [Selumetinib] (first compound max 10 µM, 7x7, partner max 10 µM) | 0.63 | 0.357 | 0.802 | 0.559 | 0.958 | 0.563 | 0.72 | 0.523 | 0.949 | 0.262 | 0.631 | 0.462 | 0.847 | 0.25 | 1 | 0.582 | 0.28 | 0.349 | 0.465 | 0.369
11 | O=C(c1cc(Cc2n[nH]c(=O)c3ccccc23)ccc1F)N1CCN(C(=O)C2CC2)CC1 [Olaparib] + CC1(C)CCC(CN2CCN(c3ccc(C(=O)NS(=O)(=O)c4ccc(NCC5CCOCC5)c([N+](=O)[O-])c4)c(Oc4cnc5[nH]ccc5c4)c3)CC2)=C(c2ccc(Cl)cc2)C1 [Venetoclax] (first compound max 10 µM, 7x7, partner max 1 µM) | 0.849 | 0.158 | 0.272 | 0.95 | 0.115 | 0.169 | 0.872 | 0.412 | 0.18 | 0.165 | 0.239 | 0.118 | 0.965 | 0.109 | 0.99 | 0.0529 | 0.206 | 0.136 | 0.179 | 0.0752
12 | N#Cc1cnc(Nc2cc(NC[C@H]3CNCCO3)c(C(F)(F)F)cn2)cn1 [SRA737] + C=CCn1c(=O)c2cnc(Nc3ccc(N4CCN(C)CC4)cc3)nc2n1-c1cccc(C(C)(C)O)n1 [AZD1775] (first compound max 10 µM, partner max 1 µM) | 0.87 |  | 0.682 | 0.829 | 0.827 | 0.825 | 0.779 | 0.392 | 0.84 | 0.955 | 0.807 | 0.441 | 0.969 | 0.236 | 1 | 0.722 | 0.212 | 0.77 | 0.507 | 0.482
